Source: US11453690B2, “Receptor inhibitor, pharmaceutical composition comprising same, and use thereof” (BEIJING TIDE PHARMACEUTICAL CO., LTD., priority 2018, dated 2022)

Columns and labels:
AT2 Receptor (AT2R) = AT2 Receptor (AT2R) (Homo sapiens (Human), UniProt P50052); assay: Measurement of inhibitory activity on AT2 receptor (Tag-lite HTRF, Tb-labeled AT2R cells, angiotensin receptor red agonist); format: binding; settings: 1 h room temperature
AT1 Receptor (AT1R) = AT1 Receptor (AT1R) (Homo sapiens (Human), UniProt P30556); assay: Measurement of inhibitory activity on AT1 receptor (Tag-lite HTRF, Tb-labeled AT1R cells, angiotensin receptor red agonist); format: binding; settings: 1 h room temperature
AT1 Receptor (AT1R), sequence (P30556 whole entry): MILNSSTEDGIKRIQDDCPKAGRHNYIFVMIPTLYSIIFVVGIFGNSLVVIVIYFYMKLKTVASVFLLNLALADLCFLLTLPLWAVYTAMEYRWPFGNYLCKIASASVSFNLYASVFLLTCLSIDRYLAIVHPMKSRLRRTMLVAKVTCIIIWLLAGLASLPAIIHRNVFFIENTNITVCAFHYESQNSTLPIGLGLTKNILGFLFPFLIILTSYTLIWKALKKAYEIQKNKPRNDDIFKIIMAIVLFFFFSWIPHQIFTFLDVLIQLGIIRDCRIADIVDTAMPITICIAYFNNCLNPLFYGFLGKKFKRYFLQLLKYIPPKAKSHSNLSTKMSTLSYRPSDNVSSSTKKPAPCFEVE
Procedure: Measurement of Inhibitory Activity on AT1 Receptor ([…])/AT2 Receptor (AT2R)
Through the following steps, the inhibitory activity of the compound on AT1R/AT2R (IC50 value) was determined:
1) An appropriate amount of 1×TLB (Tag-lite Buffer) was prepared and well mixed for use.
2) The compound was diluted by 10 times with ddH2O or DMSO. The compound was then dilute to 4 times of the working concentration with 1×TLB and mixed well for use.
3) 8600 nM Tag-lite angiotensin receptor red agonist was diluted to 12 nM (4×Kd) with 1×TLB.
4) 5 ml 1×TLB was taken into a 15 ml centrifuge tube.
5) After thawing 1 tube of Tb-labeled AT1R/AT2R cells in a 37° C. water bath, the cells were quickly transferred to the 1×TLB in step 4), mixed gently, and centrifuged at 1200 g for 5 minutes at room temperature.
6) The supernatant was aspirated gently, and the cells were resuspended and mixed in 2.7 ml 1×TLB, and then placed at room temperature until use.
7) 10 μl cells were added to all test wells, and 5 μl 4× working solution of the compound from step 2) was added to the corresponding test wells. 5 μl 4× Tag-lite angiotensin receptor red agonist well diluted in step 3) was added to all test wells.
8) After leaving the reaction plate at room temperature for 1 h, data were measured and analyzed using Envision HTRF Reader, and the half inhibitory concentration (IC50) of the compound on AT1R/AT2R was calculated with the GraphPad Prism four-parameter equation.

AT2 Receptor (AT2R), sequence (P50052 whole entry): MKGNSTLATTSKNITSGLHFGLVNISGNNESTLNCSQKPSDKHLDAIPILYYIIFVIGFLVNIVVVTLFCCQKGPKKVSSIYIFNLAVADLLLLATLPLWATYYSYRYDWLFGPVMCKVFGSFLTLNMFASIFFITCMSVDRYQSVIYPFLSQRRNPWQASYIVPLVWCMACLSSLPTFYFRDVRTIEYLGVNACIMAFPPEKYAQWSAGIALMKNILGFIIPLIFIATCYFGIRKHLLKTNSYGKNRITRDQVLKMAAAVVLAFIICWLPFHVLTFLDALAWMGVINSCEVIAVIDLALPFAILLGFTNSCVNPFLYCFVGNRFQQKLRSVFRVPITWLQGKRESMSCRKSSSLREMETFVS

| Structure (SMILES) | IC50 (AT2 Receptor (AT2R)) [nM] | IC50 (AT1 Receptor (AT1R)) [nM] |
| --- | --- | --- |
| O=C(O)[C@@H]1C2CCC(CC2OCc2ccccc2)N1C(=O)C(c1ccccc1)c1ccccc1 (stereo in doubt) [Compound C283, (1S,3S,4S)-5-(benzyloxy)-2-(2,2-diphenylacetyl)-2-azabicyclo[2.2.2]octane-3-carboxylic acid] | 46.3 | > 10000 |
| CCN(Cc1ccccc1)C(=O)N1[C@H]2CC[C@@H]1[C@@H](C(=O)O)N(C(=O)N(c1ccccc1)c1ccccc1)C2 [Compound C155, (1R,2S,5S)-8-(benzyl (ethyl)carbamoyl)-3-(diphenylcarbamoyl)-3,8-diazabicyclo [3.2.1]octane-2-carboxylic acid] | 9.03 | > 10000 |
| O=C(O)[C@@H]1[C@H]2CC[C@@H](CN1C(=O)C(c1ccccc1)c1ccccc1)N2C(=O)Oc1ccccc1 [Compound C79, (1R,2S,5S)-3-(2,2-diphenylacetyl)-8-(phenoxycarbonyl)-3,8-diazabicyclo[3.2.1]octane-2-carboxylic acid] | 24.6 | > 10000 |
| CC(C(=O)N1C[C@@H]2CC[C@H]([C@H]1C(=O)O)N2C(=O)OCc1ccccc1)(c1ccccc1)c1ccccc1 [Compound C157] | 27.1 | > 10000 |
| CN(Cc1ccccc1)C(=O)N1[C@H]2CC[C@@H]1[C@@H](C(=O)O)N(C(=O)N(c1ccccc1)c1ccccc1)C2 [Compound C112, (1R,2S,5S)-8-(benzyl(methyl)carbamoyl)-3-(diphenylcarbamoyl)-3,8-diazabicyclo [3.2.1]octane-2-carboxylic acid] | 21.5 | > 10000 |
| Cc1ccc(CN(C)C(=O)N2[C@H]3CC[C@@H]2[C@@H](C(=O)O)N(C(=O)N(c2ccccc2)c2ccccc2)C3)cc1 [Compound C162, (1R,2S,5S)-3-(diphenylcarbamoyl)-8-(methyl(4-methylbenzyl)carbamoyl)-3,8-diazabicyclo [3.2.1]octane-2-carboxylic acid] | 4.04 | > 10000 |
| CN(Cc1ccccc1)C(=O)N1[C@H]2CC[C@@H]1[C@@H](C(=O)O)N(C(=O)C(c1ccccc1)c1ccccc1)C2 [Compound C82, (1R,2S,5S)-8-(benzyl(methyl)carbamoyl)-3-(2,2-diphenylacetyl)-3,8-diazabicyclo[3.2.1]octane-2-carboxylic acid] | 3.98 | > 10000 |
| COc1ccc(CN(C)C(=O)N2[C@H]3CC[C@@H]2[C@@H](C(=O)O)N(C(=O)N(c2ccccc2)c2ccccc2)C3)cc1 [Compound C166] | 4.42 | > 10000 |
| O=C(O)[C@H]1[C@@H]2CC[C@H](CN1C(=O)N(c1ccccc1)c1ccccc1)N2C(=O)N(c1ccccc1)c1ccccc1 [Compound C14, (1S,2R,5R)-3,8-bis (diphenylcarbamoyl)-3,8-diazabicyclo [3.2.1]octane-2-carboxylic acid] | 29.4 | > 10000 |
| O=C(O)[C@@H]1[C@H]2CC[C@@H](CN1C(=O)C(c1ccccc1)c1ccccc1)N2C(=O)NCc1ccccc1 [Compound C78, (1R,2S,5S)-8-(benzylcarbamoyl)-3-(2,2-diphenylacetyl)-3,8-diazabicyclo[3. 2.1]octane-2-carboxylic acid] | 55 | > 10000 |
| O=C(O)[C@@H]1[C@H]2CC[C@@H](CN1C(=O)N(c1ccccc1)c1ccccc1)N2C(=O)N(c1ccccc1)c1ccccc1 [Compound C5, (1R,2S,5S)-3,8-bis (diphenylcarbamoyl)-3,8-diazabicyclo [3.2.1]octane-2-carboxylic acid] | 15.3 | > 10000 |
| O=C(O)[C@H]1[C@@H]2CC[C@H](CN1C(=O)N1c3ccccc3C=Cc3ccccc31)N2C(=O)C(c1ccccc1)c1ccccc1 [Compound C71, (1S,2R,5R)-3-(5H-dibenzo[bf]azepine-5-carbonyl)-8-(2,2-diphenylacetyl)-3,8-diazabicyclo[3. 2.1]octane-2-carboxylic acid] | 50.4 | > 10000 |
| O=C(O)[C@@H]1[C@H]2CC[C@@H](CN1C(=O)N(c1ccccc1)c1ccccc1)N2C(=O)OCc1ccccc1 [Compound C37, (1R,2S,5S)-8-((benzyloxy)carbonyl)-3-(diphenylcarbamoyl)-3,8-diazabicyclo [3.2.1]octane-2-carboxylic acid] | 55.3 | > 10000 |
| O=C(O)[C@@H]1[C@H]2CC[C@@H](CN1C(=O)N(c1ccccc1)c1ccccc1)N2C(=O)/C=C/c1ccccc1 [Compound C174, (1R,2S,5S)-8-cinnamoyl-3-(diphenylcarbamoyl)-3,8-diazabicyclo [3.2.1]octane-2-carboxylic acid] | 226 |  |
| CN(Cc1cccc(Cl)c1)C(=O)N1[C@H]2CC[C@@H]1[C@@H](C(=O)O)N(C(=O)N(c1ccccc1)c1ccccc1)C2 [Compound C151, (1R,2S,5S)-8-((3-chlorobenzyl) (methyl)carbamoyl)-3-(diphenylcarbamoyl)-3,8-diazabicyclo [3.2.1]octane-2-carboxylic acid] | 74.3 |  |
| CN(Cc1ccc(F)cc1)C(=O)N1[C@H]2CC[C@@H]1[C@@H](C(=O)O)N(C(=O)N(c1ccccc1)c1ccccc1)C2 [Compound C161, (1R,2S,5S)-3-(diphenylcarbamoyl)-8-((4-fluorobenzyl) (methyl)carbamoyl)-3,8-thazabicyclo [3.2.1]octane-2-carboxylic acid] | 30.5 |  |
| O=C(O)[C@@H]1[C@H]2CC[C@@H](CN1C(=O)N(c1ccccc1)c1ccccc1)N2C(=O)N1CCCCC1c1ccccc1 (stereo partly drawn) [Compound C146, (1R,2S,5S)-3-(diphenylcarbamoyl)-8-(2-phenylpiperidine-1-carbonyl)-3,8-diazabicyclo [3.2.1]octane-2-carboxylic acid] | 14 |  |
| O=C(O)[C@@H]1[C@H]2CC[C@@H](CN1C(=O)N1c3ccccc3C=Cc3ccccc31)N2C(=O)N(c1ccccc1)c1ccccc1 [Compound C7, (1R,2S,5S)-3-(5H-dibenzo[b,f]azepine-5-carbonyl)-8-(diphenylcarbamoyl)-3,8-diazabicyclo[3. 2.1]octane-2-carboxylic acid] | 82.7 |  |
| O=C(O)[C@@H]1[C@H]2CC[C@@H](CN1C(=O)N(c1ccccc1)c1ccccc1)N2C(=O)N(Cc1ccccc1)CC1CC1 [Compound C154, (1R,2S,5S)-8-(benzyl (cyclopropylmethyl)carbamoyl)-3-(diphenylcarbamoyl)-3,8-diazabicyclo [3.2.1]octane-2-carboxylic acid] | 19.8 |  |
| O=C(O)[C@@H]1[C@H]2CC[C@@H](CN1C(=O)N(c1ccccc1)c1ccccc1)N2C(=O)N(Cc1ccc(Cl)cc1)CC1CC1 [Compound C218, (1R,2S,5S)-8-((4-chlorobenzyl) (cyclopropylmethyl)carbamoyl)-3-(diphenylcarbamoyl)-3,8-diazabicyclo [3.2.1]octane-2-carboxylic acid] | 11.5 |  |
| Cc1cc(CN(C)C(=O)N2[C@H]3CC[C@@H]2[C@@H](C(=O)O)N(C(=O)N(c2ccccc2)c2ccccc2)C3)cs1 [Compound C185] | 38.8 |  |
| C=C(C)c1ccc(CN(C)C(=O)N2[C@H]3CC[C@@H]2[C@@H](C(=O)O)N(C(=O)N(c2ccccc2)c2ccccc2)C3)cc1 [Compound C215] | 26.5 |  |
| O=C(O)[C@@H]1[C@H]2CC[C@@H](CN1C(=O)N(c1ccccc1)c1ccccc1)N2c1nccc(-c2ccccc2)n1 [Compound C210, (1R,2S,5S)-3-(diphenylcarbamoyl)-8-(4-phenylpyrimidine-2-yl)-3,8-diazabicyclo[3.2.1] octane-2-carboxylic acid] | 49.5 |  |
| CCN(Cc1ccoc1)C(=O)N1[C@H]2CC[C@@H]1[C@@H](C(=O)O)N(C(=O)N(c1ccccc1)c1ccccc1)C2 [Compound C260, (1R,2S,5S)-3-(diphenylcarbamoyl)-8-(ethyl (furan-3-ylmethyl)carbamoyl)-3,8-diazabicyclo [3.2.1]octane-2-carboxylic acid] | 29.6 |  |
| O=C(O)[C@@H]1[C@H]2CC[C@@H](CN1C(=O)N(c1ccccc1)c1ccccc1)N2C(=O)N(Cc1ccccc1)c1ccccc1 [Compound C134, (1R,2S,5S)-8-(benzyl(phenyl)carbamoyl)-3-(diphenylcarbamoyl)-3,8-diazabicyclo [3.2.1]octane-2-carboxylic acid] | 322 |  |
| CCN(Cc1csc(Cl)c1)C(=O)N1[C@H]2CC[C@@H]1[C@@H](C(=O)O)N(C(=O)N(c1ccccc1)c1ccccc1)C2 [Compound C274, (1R,2S,5S)-8-(((5-chlorothiophene-3-yl)methyl) (ethyl)carbamoyl)-3-(diphenylcarbamoyl)-3,8-diazabicyclo [3.2.1]octane-2-carboxylic acid] | 19.8 |  |
| CCN(Cc1ccccc1Cl)C(=O)N1[C@H]2CC[C@@H]1[C@@H](C(=O)O)N(C(=O)N(c1ccccc1)c1ccccc1)C2 [Compound C212, (1R,2S,SS)-8-((2-chlorobenzyl) (ethyl)carbamoyl)-3-(diphenylcarbamoyl)-3,8-diazabicyclo [3.2.1]octane-2-carboxylic acid] | 9.04 |  |
| CN(Cc1ccccn1)C(=O)N1[C@H]2CC[C@@H]1[C@@H](C(=O)O)N(C(=O)N(c1ccccc1)c1ccccc1)C2 [Compound C126, (1R,2S,5S)-3-(diphenylcarbamoyl)-8-(methyl(pyridine-2-ylmethyl)carbamoyl)-3,8-diazabicyclo [3.2.1]octane-2-carboxylic acid] | 78 |  |
